We go through 2 compounds from patent publication US20200164065A1, “TRITERPENE SAPONIN ANALOGUES” (ADJUVANCE TECHNOLOGIES, INC., priority 2017, published 2020).

Read-outs that look alike come from different tables or passages of the source.

A short description of series [1]: Stability at 37° C. The following applies: after two weeks at 37° C. Format: physicochemical.
Protocol: (§1) Natural and synthetic QS-21 (SQS-21 or SAPONEX®) and a variety of analogs were tested for hemolytic activity.
A short description of series [2]: Companion toxicity study: body mass three days after immunization. The conditions noted are these: 20 mcg.
The nature of series [3]: Pharm/tox study with Adacel, QS-21 and TiterQuil-1055: body weight.
Description: A 0.5 mcg dose of Adacel was selected for a pharmacology/toxicology (pharm/tox) study.
Mice were vaccinated SC on days 1 and 15, weighed daily, and bled and sacrificed on day 22, except for group 7 which was sacrificed on day 29.
In series [4] the test system is hemolysis. Briefly: Hemolytic assay. Format: cell-based.
Protocol: as §1
Series [5] relates to liver. In words: Pilot pharm/tox study: histopathology of 33 tissues.
The conditions of series [6]: cited from earlier work.
The conditions of series [7]: mouse, in vivo.
The test system of series [8] is HA from H3N2 virus. Briefly: Anti-HA total IgG ELISA after immunization with HA protein. Type of series: in vivo, female BL/6 mice. The conditions noted are these: 50 μg Compound I-4 with 9 or 3 μg/ml HA protein vs 9 μg/ml HA alone, day 21 serum. Background: In an ELISA, binding on a coated surface is turned into a signal by an enzyme label.

For QS-21 [reference compound], the degraded in series [1] is recorded as 20%. In [2], the “body mass lost on average” value was 8-10%. In series [3] (mice injected with 20 mcg), the body weight lost is recorded as 8-9%. In addition, the hemolytic activity result in [4] is “highly hemolytically active”. The “liver histopathology (hepatocellular cytoplasmic vacuolization)” value in series [5] (mouse, in vivo, sc) is listed as “Mild vacuolar changes”. Also, in series [6] (cancer patients, above it local and systemic side effects), the “tolerated / maximum dose in cancer patients” value was 100 to 150 µg. Moreover, the “maximum dose for healthy patients” value in [6] (healthy patients) is roughly 50 µg. Moreover, the “highest practical tolerable dose” value in series [6] (well (non-cancer) adult and child recipients) is 25 to 50 µg.
`CC1O[C@@H](OC2C(O)[C@@H](NC(=O)CCCCCCCCCCC(=O)O)C(CO)O[C@H]2OC(=O)[C@]23CCC(C)(C)CC2C2=CCC4C5(C)CC[C@H](O)C(C)(C=O)C5CCC4(C)C2(C)CC3O)C(O)C(O)[C@H]1O[C@@H]1OC[C@@H](O)C(O)C1O` (some centres unmarked) [Compound I-4]: the degraded entry in [1] was “without detectable degradation”. Moreover, the weight loss entry in [3] (mice receiving 50 mcg) is listed as “No weight loss”, the weight loss entry (30 mcg dose with Engerix-B) is “No weight loss”, the weight loss (100 mcg dose with Engerix-B) came to 4% and the weight loss (300 mcg dose with Engerix-B) amounted to 5%. Moreover, in [4], the hemolytic activity result is “much lower or undetectable hemolytic activity”. Also, the “liver histopathology (hepatocellular cytoplasmic vacuolization)” value in series [5] (SC days 1 and 15, sacrificed day 22, 50 mcg TiterQuil-1055, 20 mcg QS-21, Adacel 2.5 mcg pertussis toxin) was “No changes at all”. Further, the “body mass gained on average” value in [7] came to 5%. Also, the “anti-HA total IgG endpoint titer and dose sparing of HA” value in [8] is “enhances anti-HA total IgG and provides a dose sparing effect on HA concentration”.
